Measured values from patent US7338959B2, “Diamino-pyrimidines and their use as angiogenesis inhibitors” (SmithKline Beecham Corporation, priority 2002, dated 2008).
Structures can show the parent of a compound that is named as a salt.

Key:
GST-VEGFR2 = target: T1, GST-VEGFR2 (Homo sapiens, UniProt P35968); assay: VEGF-R2 enzyme assay (VEGF-E), LANCE method; type: biochemical; conditions: GST-VEGFR2, 75 uM ATP, biotinylated peptide
T1 construct: baculovirus expressed recombinant constructs of the intracellular domains of human TIE2 tagged by GST; made in house
T1 sequence (P35968 786-1356 limits assumed): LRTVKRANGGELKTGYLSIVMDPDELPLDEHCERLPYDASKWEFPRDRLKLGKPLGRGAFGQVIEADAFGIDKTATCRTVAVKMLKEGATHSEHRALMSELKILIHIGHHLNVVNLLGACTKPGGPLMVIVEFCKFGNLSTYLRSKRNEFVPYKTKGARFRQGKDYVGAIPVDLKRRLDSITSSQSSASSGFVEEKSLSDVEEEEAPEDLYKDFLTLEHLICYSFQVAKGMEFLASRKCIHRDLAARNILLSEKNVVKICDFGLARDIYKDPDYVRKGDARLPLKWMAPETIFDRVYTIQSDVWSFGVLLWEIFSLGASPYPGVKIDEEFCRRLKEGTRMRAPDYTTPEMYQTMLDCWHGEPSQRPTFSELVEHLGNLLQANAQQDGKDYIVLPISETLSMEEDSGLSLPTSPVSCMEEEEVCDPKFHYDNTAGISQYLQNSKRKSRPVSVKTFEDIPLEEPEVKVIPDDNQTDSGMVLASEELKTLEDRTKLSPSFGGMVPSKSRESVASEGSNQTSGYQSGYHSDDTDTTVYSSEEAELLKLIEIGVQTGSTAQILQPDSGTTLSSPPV
Source text: VEGF-R2 Enzyme Assay (VEGF-E)
The VEGF enzyme assay used the LANCE method (Wallac) and GST-VEGFR2, baculovirus expressed recombinant constructs of the intracellular domains of human TIE2 tagged by GST. The method measured the ability of the purified enzymes to catalyse the transfer of the γ-phosphate from ATP onto tyrosine residues in a biotinylated synthetic peptide, (biotin-aminohexyl-EEEEYFELVAKKKK-NH2). This peptide phosphorylation was detected using the following procedure: GST-VEGFR2 was incubated for 40-60 mins at room temperature with 75 uM ATP, 5 mM MgCl2, 0.1 mM DTT, 0.1 mg/mL BSA and the test compound (diluted from a 10 mM stock in DMSO for desired concentration) in 100 mM HEPES buffer. The reaction was stopped by the addition of EDTA (final concentration 50 mM). Streptavidin linked-APC (allophycocyanin, Molecular Probe) and Europium-labeled anti-phosphorylated tyrosine antibody (Wallac) were then added at the final concentration of 15 nM and 1 nM, respectively. The APC signal was measured using an ARVO multilabel counter (Wallac Berthold, Japan). The percent inhibition of activity was calculated relative to blank control wells. The concentration of test compound that inhibits 50% of activity (IC50) was interpolated using nonlinear regression (Levernberg-Marquardt) and the equation, y=Vmax (1−x/(K+x))+Y2, where “K” was equal to the IC50. The IC50 values were converted to pIC50 values, i.e., −log IC50 in Molar concentration.

Recombinant GST-Tie2 = Recombinant GST-Tie2 (Homo sapiens, UniProt Q02763); assay: Tie2 fluorescence polarization kinase activity assay (TIE2-FP); type: biochemical; conditions: activated Tie2, 200 μM ATP, peptide substrate
Chain of Recombinant GST-Tie2 (Q02763 23-1124): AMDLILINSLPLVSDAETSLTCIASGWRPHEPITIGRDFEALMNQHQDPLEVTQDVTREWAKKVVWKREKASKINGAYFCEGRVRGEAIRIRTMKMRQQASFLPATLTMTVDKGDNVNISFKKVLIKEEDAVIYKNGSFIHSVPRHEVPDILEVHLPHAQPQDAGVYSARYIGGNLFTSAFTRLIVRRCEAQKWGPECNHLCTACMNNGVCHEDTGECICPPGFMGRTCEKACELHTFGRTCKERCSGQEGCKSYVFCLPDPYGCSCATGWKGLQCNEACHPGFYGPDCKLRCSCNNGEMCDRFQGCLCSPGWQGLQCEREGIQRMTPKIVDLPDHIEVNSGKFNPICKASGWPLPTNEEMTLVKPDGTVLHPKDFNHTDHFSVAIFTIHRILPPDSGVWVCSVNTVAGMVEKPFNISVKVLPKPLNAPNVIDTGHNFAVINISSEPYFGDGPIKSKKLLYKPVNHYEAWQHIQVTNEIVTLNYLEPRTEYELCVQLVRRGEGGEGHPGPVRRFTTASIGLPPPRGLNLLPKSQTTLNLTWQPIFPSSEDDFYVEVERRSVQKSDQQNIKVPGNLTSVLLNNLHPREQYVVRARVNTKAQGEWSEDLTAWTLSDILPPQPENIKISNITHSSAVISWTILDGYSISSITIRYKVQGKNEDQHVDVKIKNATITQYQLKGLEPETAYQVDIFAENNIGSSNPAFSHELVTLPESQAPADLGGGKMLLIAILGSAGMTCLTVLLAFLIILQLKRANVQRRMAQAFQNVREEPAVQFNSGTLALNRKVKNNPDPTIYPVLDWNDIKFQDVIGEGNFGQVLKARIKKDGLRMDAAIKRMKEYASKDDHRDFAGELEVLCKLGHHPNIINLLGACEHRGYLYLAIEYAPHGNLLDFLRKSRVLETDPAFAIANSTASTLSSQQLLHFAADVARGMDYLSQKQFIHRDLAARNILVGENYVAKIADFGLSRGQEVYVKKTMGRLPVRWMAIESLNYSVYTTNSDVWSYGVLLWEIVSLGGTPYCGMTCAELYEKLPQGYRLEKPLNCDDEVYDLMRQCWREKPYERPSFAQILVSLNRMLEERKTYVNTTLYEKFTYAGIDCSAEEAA
Protocol: Tie2 Fluorescence Polarization Kinase Activity Assay: (TIE2-FP)
Activation of Recombinant Tie2 Activation:
Recombinant GST-Tie2 was activated by incubating the enzyme in 20 mM Tris-HCl, pH 7.5, 12 mM MgCl2, 100 mM NaCl, 20 μM sodium vanidate, 1 mM DTT and 300 μM ATP at room temperature for 2 hours. The activation mixture was then passed through a NAP-25 desalting column (Pharmacia Biotech cat. no. 17-0852-02) to remove the free ATP. The activated enzyme was stored as aliquots at −80° C. in 20 mM Tris-HCl, pH 7.5 and 100 mM NaCl.
The final assay conditions were 50 mM HEPES, pH 7.5, 5% DMSO (when screening compounds), 200 μM ATP, 5 mM MgCl2, 1 mM DTT, 50 μM sodium vanidate, 1 nM activated enzyme, and 200 μM peptide. IC50's of compounds were measured under subsaturating ATP (200 μM) and varing concentrations of activated Tie2 and peptide substrate (RFWKYEFWR-OH; MW 1873 Da, TFA salt). Panvera Anti-phosphotyrosine antibody (Cat#P2840) and PTK Green Tracer (Cat#P2842) were used to detect the phosphorylated peptide. Polarization was measured on a TECAN Polarion in 138-second cycles for 30 minutes at room temperature. IC50's were then determined from the % polarization using normal calculation methods.

| IC50 (GST-VEGFR2) [nM] | IC50 (Recombinant GST-Tie2) [nM] | VEGF-E (GST-VEGFR2) | TIE2-FP (Recombinant GST-Tie2) | Compound |
| --- | --- | --- | --- | --- |
| < 100 | – | – | – | CN(c1ccc2c(c1)nc(NCc1ccc(F)cc1)n2C)c1ccnc(Nc2cccc(S(N)(=O)=O)c2)n1 [Example 11, 3-(4-{[2-(4-Fluoro-benzylamino)-1-methyl-1H-benzoimidazol-5-yl]-methyl-amino}-pyrimidin-2-ylamino)-benzenesulfonamide hydrochloride] |
| < 100 | < 100 | – | – | CN(c1ccc2c(c1)nc(Nc1ccc(C(F)(F)F)cc1)n2C)c1ccnc(Nc2ccc(CS(C)(=O)=O)cc2)n1 [Example 110, N^1-Methyl-N^5-[2-(4-Methanesulfonymethyl-phenylamino)-pyrimidin-4-yl]-N^5-methyl-N^2-(4-trifluoromethyl-phenyl)-1H-benzoimidazole-2,5-diamine] |
| < 100 | 100 to 1000 | – | – | CN(c1ccc2c(c1)nc(Nc1cccc(F)c1)n2C)c1ccnc(Nc2ccc(CS(C)(=O)=O)cc2)n1 [Example 118] |
| < 100 | 100 to 1000 | – | – | CN(c1ccc2c(c1)nc(Nc1ccccc1F)n2C)c1ccnc(Nc2ccc(CS(C)(=O)=O)cc2)n1 [Example 124] |
| < 100 | 1000 to 10000 | – | – | CN(c1ccc2c(c1)nc(NC(=O)Cc1cccs1)n2C)c1ccnc(Nc2ccc(CS(C)(=O)=O)cc2)n1 [Example 153] |
| – | – | +++ (+++ = pIC50 of >7.0) | – | CN(c1ccc2c(c1)nc(NC(=O)C1CCCCC1)n2C)c1ccnc(Nc2cccc(CS(C)(=O)=O)c2)n1 [Example 157, Cyclohexanecarboxylic acid ({[2-(3-methanesulfonylmethyl-phenylamino)-pyrimidin-4-yl]-methyl-amino}-methyl-1H-benzoimidazol-2-yl)-amide] |
| – | – | +++ (+++ = pIC50 of >7.0) | + (+ = pIC50 of 5.0-6.0) | Cc1cc(CC(=O)Nc2nc3cc(N(C)c4ccnc(Nc5ccc(CS(C)(=O)=O)cc5)n4)ccc3n2C)on1 [Example 173, N-({[2-(4-Methanesulfonylmethyl-phenylamino)-pyrimidin-4-yl]-methyl-amino}-methyl-1H-benzoimidazol-2-yl)-2-(3-methyl-isoxazol-5-yl)-acetamide] |
| < 100 | – | – | – | CN(c1ccc2c(c1)nc(NC(=O)Cc1ccccc1)n2C)c1ccnc(Nc2ccc(CS(C)(=O)=O)cc2)n1 [Example 202, Phenyl-N-({[2-(4-methanesulfonylmethyl-phenylamino)-pyrimidin-4-yl]-methyl-amino}-methyl-1H-benzoimidazol-2-yl)-acetamide] |
| < 100 | < 100 | – | – | CN(c1ccc2c(c1)nc(NC(=O)C1(c3ccccc3)CC1)n2C)c1ccnc(Nc2ccc(CS(C)(=O)=O)cc2)n1 [Example 203, Phenylcyclopropanecarboxylic acid ({[2-(4-methanesulfonylmethyl-phenylamino)-pyrimidin-4-yl]-methyl-amino}-methyl-1H-benzoimidazol-2-yl)-amide] |
| < 100 | 1000 to 10000 | – | – | CN(c1ccc2c(c1)nc(NC(=O)Cc1ccc(F)cc1)n2C)c1ccnc(Nc2ccc(CS(C)(=O)=O)cc2)n1 [Example 206, 2-(4-Fluoro-phenyl)-N-({[2-(4-methanesulfonylmethyl-phenylamino)-pyrimidin-4-yl]-methyl-amino}-methyl-1H-benzoimidazol-2-yl)-acetamide] |
| < 100 | – | – | – | COc1cccc(CC(=O)Nc2nc3cc(N(C)c4ccnc(Nc5ccc(CS(C)(=O)=O)cc5)n4)ccc3n2C)c1OC [Example 219, 2-(2,3-Dimethoxyphenyl)-N-(5-{[2-(4-methanesulfonylmethyl-phenylamino)-pyrimidin-4-yl]-methyl-amino}-1-methyl-1H-benzoimidazol-2-yl)-acetamide] |
| – | – | ++ (++ = pIC50 of 6.0-7.0) | – | N-({[2-(3-methanesulfonylmethyl-phenylamino)-pyrimidin-4-yl]-methyl-amino}-methyl-1H-benzoimidazol-2-yl)-3,5-bis-trifluoromethyl-benzamide [Example 156] |

Second part, the compound before the results:

| Compound | IC50 (GST-VEGFR2) [nM] | IC50 (Recombinant GST-Tie2) [nM] | VEGF-E (GST-VEGFR2) | TIE2-FP (Recombinant GST-Tie2) |
| --- | --- | --- | --- | --- |
| CNS(=O)(=O)CCc1ccc(Nc2nccc(N(C)c3ccc4c(c3)nc(NC(C)C)n4C)n2)cc1 [Example 90, 2-(4-{4-[(2-Isopropylamino-1-methyl-1H-benzoimidazol-5-yl)-methyl-amino]-pyrimidin-2-ylamino}-phenyl)-ethanesulfonic acid methylamide hydrochloride] | < 100 | – | – | – |
| CC(C)Nc1nc2cc(N(C)c3ccnc(Nc4cccc(OS(C)(=O)=O)c4)n3)ccc2n1C [Example 92, hydrochloride] | 100 to 1000 | 1000 to 10000 | – | – |
| Cc1ccc(Nc2nccc(N(C)c3ccc4c(c3)nc(NCCc3ccccc3)n4C)n2)cc1S(N)(=O)=O [Example 95, 2-Methyl-5-{4-[methyl-(1-methyl-2-phenethylamino-1H-benzoimidazol-5-yl)-amino]-pyrimidin-2-ylamino}-benzenesulfonamide hydrochloride] | < 100 | 100 to 1000 | – | – |
| CN(c1ccc2c(c1)nc(Nc1ccc(Cl)cc1)n2C)c1ccnc(Nc2ccc(CS(C)(=O)=O)cc2)n1 [Example 112] | < 100 | < 100 | – | – |
| CN(c1ccc2c(c1)nc(Nc1cc(C(F)(F)F)ccc1F)n2C)c1ccnc(Nc2ccc(CS(C)(=O)=O)cc2)n1 [Example 125] | < 100 | < 100 | – | – |
| Cn1c(Nc2cc(C(C)(C)C)on2)nc2cc(Nc3ccnc(Nc4ccc(CS(C)(=O)=O)cc4)n3)ccc21.O=C(O)C(F)(F)F [Example 135, N^2-(5-tert-Butyl-isoxazol-3-yl)-N^5-[2-(4-methanesulfonylmethyl-phenylamino)-pyrimidin-4-yl]-1-methyl-1-1H-benzoimidazole-2,5-diamine trifluoroacetate] | – | – | +++ (+++ = pIC50 of >7.0) | + (+ = pIC50 of 5.0-6.0) |
| Cn1c(Nc2cc(C(C)(C)C)on2)nc2cc(Nc3ccnc(Nc4cccc(CS(C)(=O)=O)c4)n3)ccc21 [Example 136, N^2-(5-tert-Butyl-isoxazol-3-yl)-N^5-[2-(3-methanesulfonylmethyl-phenylamino)-pyrimidin-4-yl]-1-methyl-1H-benzoimidazole-2,5-diamine] | < 100 | 1000 to 10000 | – | – |
| CN(c1ccc2c(c1)nc(NC(=O)Nc1ccccc1)n2C)c1ccnc(Nc2ccc(CS(C)(=O)=O)cc2)n1 [Example 142, N-(1-methyl-5-{methyl[2-({4-[(methylsulfonyl)methyl]phenyl}amino)pyrimidin-4-yl]amino}-1H-benzimidazol-2-yl)-N′-phenylurea] | < 100 | – | – | – |
| CN(c1ccc2c(c1)nc(NC(=O)Cc1cccc(SC(F)(F)F)c1)n2C)c1ccnc(Nc2cccc(CS(C)(=O)=O)c2)n1 [Example 162, N-(5-{[2-(3-Methanesulfonylmethyl-phenylamino)-pyrimidin-4-yl]-methyl-amino}-1-methyl-1H-benzoimidazol-2-yl)-2-(3-trifluoromethylsulfanyl-phenyl)-acetamide] | < 100 | 1000 to 10000 | – | – |
| CN(c1ccc2c(c1)nc(NC(=O)Cc1cccs1)n2C)c1ccnc(Nc2cccc(CS(C)(=O)=O)c2)n1 [Example 169, N-({[2-(3-Methanesulfonylmethyl-phenylamino)-pyrimidin-4-yl]-methyl-amino}-methyl-1H-benzoimidazol-2-yl)-C-thiophen-2-yl-acetamide] | < 100 | 1000 to 10000 | – | – |
| CN(c1ccc2c(c1)nc(NC(=O)C1(c3cc(F)ccc3F)CC1)n2C)c1ccnc(Nc2ccc(CS(C)(=O)=O)cc2)n1 [Example 204, 1-(2,5-Difluoro-phenyl)-cyclopropanecarboxylic acid ({[2-(4-methanesulfonylmethyl-phenylamino)-pyrimidin-4-yl]-methyl-amino}-methyl-1H-benzoimidazol-2-yl)-amide] | 100 to 1000 | 1000 to 10000 | – | – |
| CN(c1ccc2c(c1)nc(NC(=O)Cc1ccc3c(c1)OCO3)n2C)c1ccnc(Nc2ccc(CS(C)(=O)=O)cc2)n1 [Example 239, Benzo[1,3]dioxol-5-yl-N-({[2-(4-methanesulfonylmethyl-phenylamino)-pyrimidin-4-yl]-methyl-amino}-methyl-1H-benzoimidazol-2-yl)-acetamide] | 100 to 1000 | – | – | – |
